From US20230085307A1, “PYRIDAZINONE COMPOUND AND HERBICIDE” (NISSAN CHEMICAL CORPORATION, priority 2019, published 2023)

Experiments:
[1] = system: wild oat; assay: Test Example 5: herbicidal effect by foliage application, plastic box (Table 20, symbol I); type: in vivo, wild oat (Avena fatua); details: foliage application
Outline: (§1)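 Plants were sown into sterilized diluvial soil under about 1.5 cm cover and kept in a greenhouse at 25° C. to 30° C. Fourteen days on, foliage received an even spray of the diluted emulsion. Herbicidal or crop effect was judged three weeks afterwards.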

[2] = system: lambsquarters; assay: Test Example 5: herbicidal effect by foliage application, plastic box (Table 20, symbol O); type: in vivo, lambsquarters (Chenopodium album); details: foliage application
Outline: as §1

[3] = system: chickweed; assay: Test Example 4: herbicidal effect by soil treatment (Table 19, symbol P); type: in vivo, common chickweed (Stellaria media)
Outline: (§2)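 In this soil treatment, the formulated compound reached the seeds only through the soil: seeds were buried about 1.5 cm deep in sterilized diluvial soil, then the diluted emulsion was sprayed over the surface. After three weeks at 25° C. to 30° C. in a greenhouse, effects were graded on criteria from an earlier test.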

[4] = system: Italian ryegrass; assay: Test Example 5: herbicidal effect by foliage application, plastic box (Table 20, symbol K); type: in vivo, Italian ryegrass (Lolium multiflorum); details: foliage application
Outline: as §1

[5] = system: persian speedwell; assay: Test Example 4: herbicidal effect by soil treatment (Table 19, symbol R); type: in vivo, Persian speedwell (Veronica persica)
Outline: as §2

[6] = system: green foxtail; assay: Test Example 5: herbicidal effect by foliage application, plastic box (Table 20, symbol G); type: in vivo, green foxtail (Setaria viridis); details: foliage application
Outline: as §1

[7] = system: southern crabgrass; assay: Test Example 4: herbicidal effect by soil treatment (Table 19, symbol F); type: in vivo, southern crabgrass (Digitaria ciliaris)
Outline: as §2

[8] = system: Chinese sprangletop; assay: Test Example 3: herbicidal effect by foliage application, Wagner pot (Table 18, symbol D); type: in vivo, chinese sprangletop (Leptochloa chinensis)
Outline: (§3)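 Plants were sown in alluvial soil held under 0.1–0.5 cm standing water and grown 14 days in a greenhouse at 25–30 °C. An emulsifiable formulation, water-diluted to the set dose, was then sprayed onto the foliage, and effects were scored three weeks later using previously defined criteria.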

[9] = system: persian speedwell; assay: Test Example 5: herbicidal effect by foliage application, plastic box (Table 20, symbol R); type: in vivo, Persian speedwell (Veronica persica); details: foliage application
Outline: as §1

[10] = system: blackgrass; assay: Test Example 5: herbicidal effect by foliage application, plastic box (Table 20, symbol J); type: in vivo, blackgrass (Alopecurus myosuroides); details: foliage application
Outline: as §1

[11] = system: blackgrass; assay: Test Example 4: herbicidal effect by soil treatment (Table 19, symbol J); type: in vivo, blackgrass (Alopecurus myosuroides)
Outline: as §2

[12] = system: Italian ryegrass; assay: Test Example 4: herbicidal effect by soil treatment (Table 19, symbol K); type: in vivo, Italian ryegrass (Lolium multiflorum)
Outline: as §2

[13] = system: false cleavers; assay: Test Example 5: herbicidal effect by foliage application, plastic box (Table 20, symbol Q); type: in vivo, false cleavers (Galium spurium); details: foliage application
Outline: as §1

[14] = system: redroot pigweed; assay: Test Example 4: herbicidal effect by soil treatment (Table 19, symbol N); type: in vivo, redroot pigweed (Amaranthus retroflexus)
Outline: as §2

[15] = system: windgrass; assay: Test Example 5: herbicidal effect by foliage application, plastic box (Table 20, symbol L); type: in vivo, windgrass (Apera spica-venti); details: foliage application
Outline: as §1

[16] = system: green foxtail; assay: Test Example 4: herbicidal effect by soil treatment (Table 19, symbol G); type: in vivo, green foxtail (Setaria viridis)
Outline: as §2

[17] = system: southern crabgrass; assay: Test Example 5: herbicidal effect by foliage application, plastic box (Table 20, symbol F); type: in vivo, southern crabgrass (Digitaria ciliaris); details: foliage application
Outline: as §1

[18] = system: barnyard grass; assay: Test Example 3: herbicidal effect by foliage application, Wagner pot (Table 18, symbol H); type: in vivo, barnyard grass (Echinochloa crus-galli)
Outline: as §3

[19] = system: false cleavers; assay: Test Example 4: herbicidal effect by soil treatment (Table 19, symbol Q); type: in vivo, false cleavers (Galium spurium)
Outline: as §2

[20] = system: velvetleaf; assay: Test Example 5: herbicidal effect by foliage application, plastic box (Table 20, symbol M); type: in vivo, velvetleaf (Abutilon theophrasti); details: foliage application
Outline: as §1

[21] = system: windgrass; assay: Test Example 4: herbicidal effect by soil treatment (Table 19, symbol L); type: in vivo, windgrass (Apera spica-venti)
Outline: as §2

[22] = system: wild oat; assay: Test Example 4: herbicidal effect by soil treatment (Table 19, symbol I); type: in vivo, wild oat (Avena fatua)
Outline: as §2

[23] = system: velvetleaf; assay: Test Example 4: herbicidal effect by soil treatment (Table 19, symbol M); type: in vivo, velvetleaf (Abutilon theophrasti)
Outline: as §2

[24] = system: barnyard grass; assay: Test Example 4: herbicidal effect by soil treatment (Table 19, symbol H); type: in vivo, barnyard grass (Echinochloa crus-galli)
Outline: as §2

[25] = system: lambsquarters; assay: Test Example 4: herbicidal effect by soil treatment (Table 19, symbol O); type: in vivo, lambsquarters (Chenopodium album)
Outline: as §2

[26] = system: barnyard grass; assay: Test Example 5: herbicidal effect by foliage application, plastic box (Table 20, symbol H); type: in vivo, barnyard grass (Echinochloa crus-galli); details: foliage application
Outline: as §1

[27] = system: rice flat sedge; assay: Test Example 3: herbicidal effect by foliage application, Wagner pot (Table 18, symbol E); type: in vivo, rice flat sedge (Cyperus iria)
Outline: as §3

[28] = 283 g/ha, 3 weeks after application
[29] = 320 g/ha, three weeks after application
[30] = amount of applied herbicide 320 g/ha

For `CCCC(=O)Oc1c(C)nn(C)c(=O)c1-c1c(-c2ccccc2OC)sc2ccc(F)cc12` [2-025], the “effect on wild oat (I)” value [1, 28] was 3 (Herbicidal rate of 40% or more and less than 70%), the “effect on lambsquarters (O)” value [2, 28] was 3 (Herbicidal rate of 40% or more and less than 70%) and the “herbicidal effect rating, P: chickweed” value ([3]; 283 g/ha) was 4 (Herbicidal rate of 70% or more and less than 90%). For the same molecule, the “effect on Italian ryegrass (K)” value [4, 28] was 1 (Herbicidal rate of 5% or more and less than 20%), the “herbicidal effect rating, R: persian speedwell” value ([5]; 283 g/ha) was 3 (Herbicidal rate of 40% or more and less than 70%) and the “effect on green foxtail (G)” value [6, 28] was 4 (Herbicidal rate of 70% or more and less than 90%). The “herbicidal effect rating, F: southern crabgrass” value ([7]; 283 g/ha) was 3 (Herbicidal rate of 40% or more and less than 70%), the “herbicidal effect on D (Chinese sprangletop), rating 0-5” value ([8]; 283 g/ha) was 0 (Herbicidal rate of 5% or less (almost no effect)) and the “effect on persian speedwell (R)” value [9, 28] was 4 (Herbicidal rate of 70% or more and less than 90%). For the same molecule, the “effect on blackgrass (J)” value [10, 28] was 0 (Herbicidal rate of 5% or less (almost no effect)), the “herbicidal effect rating, J: blackgrass” value ([11]; 283 g/ha) was 0 (Herbicidal rate of 5% or less (almost no effect)) and the “herbicidal effect rating, K: Italian ryegrass” value ([12]; 283 g/ha) was 0 (Herbicidal rate of 5% or less (almost no effect)). For the same molecule, the “effect on false cleavers (Q)” value [13, 28] was 4 (Herbicidal rate of 70% or more and less than 90%), the “herbicidal effect rating, N: redroot pigweed” value ([14]; 283 g/ha) was 3 (Herbicidal rate of 40% or more and less than 70%) and the “effect on windgrass (L)” value [15, 28] was 1 (Herbicidal rate of 5% or more and less than 20%). The “herbicidal effect rating, G: green foxtail” value ([16]; 283 g/ha) was 4 (Herbicidal rate of 70% or more and less than 90%), the “effect on southern crabgrass (F)” value [17, 28] was 4 (Herbicidal rate of 70% or more and less than 90%) and the “herbicidal effect on H (barnyard grass), rating 0-5” value ([18]; 283 g/ha) was 4 (Herbicidal rate of 70% or more and less than 90%). The “herbicidal effect rating, Q: false cleavers” value ([19]; 283 g/ha) was 4 (Herbicidal rate of 70% or more and less than 90%), the “effect on velvetleaf (M)” value [20, 28] was 5 (Herbicidal rate of 90% or more (almost completely withered)) and the “herbicidal effect rating, L: windgrass” value ([21]; 283 g/ha) was 0 (Herbicidal rate of 5% or less (almost no effect)). The “herbicidal effect rating, I: wild oat” value ([22]; 283 g/ha) was 3 (Herbicidal rate of 40% or more and less than 70%), the “herbicidal effect rating, M: velvetleaf” value ([23]; 283 g/ha) was 2 (Herbicidal rate of 20% or more and less than 40%) and the “herbicidal effect rating, H: barnyard grass” value ([24]; 283 g/ha) was 3 (Herbicidal rate of 40% or more and less than 70%). For the same molecule, the “herbicidal effect rating, O: lambsquarters” value ([25]; 283 g/ha) was 4 (Herbicidal rate of 70% or more and less than 90%), the “effect on barnyard grass (H)” value [26, 28] was 3 (Herbicidal rate of 40% or more and less than 70%) and the “herbicidal effect on E (rice flat sedge), rating 0-5” value ([27]; 283 g/ha) was 4 (Herbicidal rate of 70% or more and less than 90%).

With `COc1cc2sc(-c3ccc(F)cc3OC)c(-c3c(O)c(C)nn(C)c3=O)c2cc1OC` [5-060] the “herbicidal effect on wild oat (I)” value [1, 29] was 4 (Herbicidal rate of 70% or more and less than 90%), the “herbicidal effect on lambsquarters (O)” value [2, 29] was 3 (Herbicidal rate of 40% or more and less than 70%) and the “P: chickweed, herbicidal effect grade” value [3, 30] was 5 (Herbicidal rate of 90% or more (almost completely withered)). For the same molecule, the “herbicidal effect on Italian ryegrass (K)” value [4, 29] was 3 (Herbicidal rate of 40% or more and less than 70%), the “R: persian speedwell, herbicidal effect grade” value [5, 30] was 3 (Herbicidal rate of 40% or more and less than 70%) and the “herbicidal effect on green foxtail (G)” value [6, 29] was 4 (Herbicidal rate of 70% or more and less than 90%). For the same molecule, the “F: southern crabgrass, herbicidal effect grade” value [7, 30] was 0 (Herbicidal rate of 5% or less (almost no effect)), the “herbicidal effect on Chinese sprangletop (D)” value ([8]; 320 g/ha) was 2 (Herbicidal rate of 20% or more and less than 40%) and the “herbicidal effect on persian speedwell (R)” value [9, 29] was 4 (Herbicidal rate of 70% or more and less than 90%). The “herbicidal effect on blackgrass (J)” value [10, 29] was 4 (Herbicidal rate of 70% or more and less than 90%), the “J: blackgrass, herbicidal effect grade” value [11, 30] was 0 (Herbicidal rate of 5% or less (almost no effect)) and the “K: Italian ryegrass, herbicidal effect grade” value [12, 30] was 1 (Herbicidal rate of 5% or more and less than 20%). The “herbicidal effect on false cleavers (Q)” value [13, 29] was 0 (Herbicidal rate of 5% or less (almost no effect)), the “N: redroot pigweed, herbicidal effect grade” value [14, 30] was 0 (Herbicidal rate of 5% or less (almost no effect)) and the “herbicidal effect on windgrass (L)” value [15, 29] was 3 (Herbicidal rate of 40% or more and less than 70%). The “G: green foxtail, herbicidal effect grade” value [16, 30] was 0 (Herbicidal rate of 5% or less (almost no effect)), the “herbicidal effect on southern crabgrass (F)” value [17, 29] was 3 (Herbicidal rate of 40% or more and less than 70%) and the “herbicidal effect on barnyard grass (H)” value ([18]; 320 g/ha) was 5 (Herbicidal rate of 90% or more (almost completely withered)). For the same molecule, the “Q: false cleavers, herbicidal effect grade” value [19, 30] was 0 (Herbicidal rate of 5% or less (almost no effect)), the “herbicidal effect on velvetleaf (M)” value [20, 29] was 0 (Herbicidal rate of 5% or less (almost no effect)) and the “L: windgrass, herbicidal effect grade” value [21, 30] was 1 (Herbicidal rate of 5% or more and less than 20%). The “I: wild oat, herbicidal effect grade” value [22, 30] was 0 (Herbicidal rate of 5% or less (almost no effect)), the “M: velvetleaf, herbicidal effect grade” value [23, 30] was 0 (Herbicidal rate of 5% or less (almost no effect)) and the “H: barnyard grass, herbicidal effect grade” value [24, 30] was 0 (Herbicidal rate of 5% or less (almost no effect)). The “O: lambsquarters, herbicidal effect grade” value [25, 30] was 0 (Herbicidal rate of 5% or less (almost no effect)), the “herbicidal effect on barnyard grass (H)” value [26, 29] was 4 (Herbicidal rate of 70% or more and less than 90%) and the “herbicidal effect on rice flat sedge (E)” value ([27]; 320 g/ha) was 3 (Herbicidal rate of 40% or more and less than 70%).
